Measurements as given in patent US20150175655A1 (priority 2012, published 2015).

Molecular target: T1, NS3 genotype 1b protease (Hepatitis C virus genotype 1b, UniProt Q9WMX2, E1202G)
T1 construct: Purified NS3 protease domain (amino acids 1-181) of the genotype 1b and 3a virus were generated as above; K3 hexahistidine tag (N); rTEV protease cleavage site (N); made in house; host or cells: E. coli BL21AI, pET28 vector p28-N6H-Tev-NS3(181)1b
Test: Ki determination, NS3 protease genotype 1b (fluorogenic depsipeptide substrate)
Assay type: biochemical
How it was run: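 The His-tagged HCV NS3 protease domain (residues 1-181, genotype 1b con-1) was expressed in E. coli, and 50 pM enzyme with 20 μM NS4A peptide was used. Inhibitor (100 nM to 5 pM, 3-fold steps) was pre-incubated 1 h at room temperature in 50 mM HEPES, 40% glycerol, 0.05% Triton X-100, 10 mM DTT, 10% DMSO. The reaction was started with 4 μM fluorogenic substrate, and fluorescence (ex 340/em 490 nm) was read every 30 s between 90 and 120 min. Ki^app came from fitting rates with the Morrison equation.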

`COc1ccc2nc3c(nc2c1)O[C@H]1CN(C(=O)[C@H](C(C)(C)C)NC(=O)O[C@@H]2C[C@H]2CCCCC3F)[C@H](C(=O)N[C@]2(C(=O)NS(=O)(=O)C3(C)CC3)C[C@H]2C(F)F)[C@@H]1C` (stereo partly drawn) [Example 47, (1aR,5S,8S,9S,10R,22aR)-5-tert-butyl-N-[(1R,2R)-2-(difluoromethyl)-1-{[(1-methylcyclopropyl)sulfonyl]carbamoyl}cyclopropyl]-18-fluoro-14-methoxy-9-methyl-3,6-dioxo-1,1a,3,4,5,6,9,10,18,19,20,21,22,22a-tetradecahydro-8H-7,10-methanocyclopropa[18,19][1,10,3,6]dioxadiazacyclononadecino[11,12-b]quinoxaline-8-carboxamide] showed a Ki of 70 pM.
